Data taken from patent US11702422B2, “Imidazopyridazines as modulators of IL-17” (Janssen Pharmaceutica NV, priority 2020, dated 2023).

Tests used:
[1] = target: IL-17A(FLAG-Tagged): IL-17RA(His-Tagged) (Homo sapiens, UniProt Q16552, K93Q); assay: IL-17A(FLAG-Tagged): IL-17RA(His-Tagged) Binding Disruption Eu-HTRF Assay; conditions: IL-17A/IL-17RA binding disruption, simple average if tested more than once
Outline: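 IC50 comes from a one-site competition fit of the HTRF 665/620 nm ratio. Compound dilutions (2-fold, 22 points) were held 1 h rt with FLAG-tagged IL-17A dimer, then His-tagged IL-17RA plus Eu-cryptate anti-FLAG and D2 anti-His antibodies were added for 2 h rt.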

[2] = tested on: IL-17A-induced G-CSF production in human normal keratinocyte (NHK); assay: NHK Assay: IL-17A-induced G-CSF production in human normal keratinocytes; format: cell-based; conditions: 24 h, adult normal human keratinocytes, IL-17A 5 ng/mL, simple average if tested more than once
Outline: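 Adult NHK, 3000-4000 cells/well; rhIL-17A + titrated cpd preincubated 1 h rt, then onto cells. Final: IL-17A 5 ng/mL, DMSO 0.2%, 5% FBS. 24 h, 37° C. G-CSF in supernatant by HTRF vs standard curve; IC50. Viability by CellTiter-Glo vs DMSO.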

Chain of UniProt Q16552 (Q16552 with tags, fused parts or gaps K93Q): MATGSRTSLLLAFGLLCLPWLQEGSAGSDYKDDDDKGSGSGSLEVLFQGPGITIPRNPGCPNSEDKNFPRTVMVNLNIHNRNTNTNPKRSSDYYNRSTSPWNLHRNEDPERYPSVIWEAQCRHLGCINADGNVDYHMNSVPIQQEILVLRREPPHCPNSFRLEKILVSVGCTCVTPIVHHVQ

IC50 [1] [nM] | Structure (SMILES) | IC50 ([2]; Homo sapiens, Keratinocyte) [nM] | IC50 [2] [nM]
360 | CCC(F)(F)CC(=O)N[C@@H](c1cnn2cc([C@@H](NC(=O)c3nonc3C)C3CCC(F)(F)CC3)nc2c1)C1CC1 [Example 338, N—((S)-(7-((R)-Cyclopropyl(3,3-difluoropentanamido)methyl)imidazo[1,2-b]pyridazin-2-yl)(4,4-difluorocyclohexyl)methyl)-4-methyl-1,2,5-oxadiazole-3-carboxamide] | 2000 | 
440 | CC(C)n1nccc1C(=O)N[C@H](c1cn2ncc(C(NC(=O)CC3CC(F)(F)C3)C3CCOCC3)cc2n1)C1CCC(F)(F)CC1 (single isomer, unassigned) [Example 535, N—((S)-(7-((R*)-1-(2-(3,3-Difluorocyclobutyl)acetamido)(tetrahydro-2H-pyran-4-yl)methyl)imidazo[1,2-b]pyridazin-2-yl)(4,4-difluorocyclohexyl)methyl)-1-isopropyl-1H-pyrazole-5-carboxamide] | 89 | 
87 | CC(C)C(NC(=O)CC1CC(F)(F)C1)c1cnn2cc([C@@H](NC(=O)c3nonc3OCC(F)F)C3CCC(F)(F)CC3)nc2c1 (stereo in doubt) [Example 514, N—((S)-(7-((S*)-1-(2-(3,3-Difluorocyclobutyl)acetamido)-2-methylpropyl)imidazo[1,2-b]pyridazin-2-yl)(4,4-difluorocyclohexyl)methyl)-4-(2,2-difluoroethoxy)-1,2,5-oxadiazole-3-carboxamide] | 42 | 
190 | CC(n1nccc1C(=O)N[C@H](c1cn2ncc([C@H](NC(=O)CCC(F)(F)F)C3CC3)cc2n1)C1CCC(F)(F)CC1)C(F)(F)F (single isomer, unassigned) [Example 115, N—((S)-(7-((R)-Cyclopropyl(4,4,4-trifluorobutanamido)methyl)imidazo[1,2-b]pyridazin-2-yl)(4,4-difluorocyclohexyl)methyl)-1-((R*)-1,1,1-trifluoropropan-2-yl)-1H-pyrazole-5-carboxamide] | 140 | 
110 | CC(C)n1nccc1C(=O)N[C@H](c1cn2ncc([C@H](NC(=O)C[C@H]3C[C@@H](F)C3)C3CC3)cc2n1)C1CCC(F)(F)CC1 (single isomer, unassigned) [Example 257] | 120 | 
290 | O=C(CCC(F)(F)F)NC(c1cnn2cc([C@@H](NC(=O)c3cnn(CCC(F)(F)F)c3)C3CCC(F)(F)CC3)nc2c1)C1CC1 (single isomer, unassigned) [Example 6, N—((S)-(7-((R*)-Cyclopropyl(4,4,4-trifluorobutanamido)methyl)imidazo[1,2-b]pyridazin-2-yl)(4,4-difluorocyclohexyl)methyl)-1-(3,3,3-trifluoropropyl)-1H-pyrazole-4-carboxamide] |  | 570
190 | O=C(CCC(F)(F)F)N[C@@H](c1cnn2cc([C@@H](NC(=O)c3cccc(OCC(F)(F)F)n3)C3CCC(F)(F)CC3)nc2c1)C1CC1 [Example 203, N—((S)-(7-((R)-Cyclopropyl(4,4,4-trifluorobutanamido)methyl)imidazo[1,2-b]pyridazin-2-yl)(4,4-difluorocyclohexyl)methyl)-6-(2,2,2-trifluoroethoxy)picolinamide] | 2700 | 
48 | Cc1nonc1C(=O)N[C@H](c1cn2ncc([C@H](NC(=O)CC(C)C(F)F)C3CC3)cc2n1)C1CCC(F)(F)CC1 (single isomer, unassigned) [Example 264, N—((S)-(7-((R)-Cyclopropyl((R*)-4,4-difluoro-3-methylbutanamido)methyl)imidazo[1,2-b]pyridazin-2-yl)(4,4-difluorocyclohexyl)methyl)-4-methyl-1,2,5-oxadiazole-3-carboxamide] |  | 350
49 | O=C(CC1CC(F)(F)C1)NC(CC(F)F)c1cnn2cc([C@@H](NC(=O)c3nonc3C3CC3)C3CCC(F)(F)CC3)nc2c1 (single isomer, unassigned) [Example 400, 4-Cyclopropyl-N—((S)-(7-((R*)-1-(2-(3,3-difluorocyclobutyl)acetamido)-3,3-difluoropropyl)imidazo[1,2-b]pyridazin-2-yl)(4,4-difluorocyclohexyl)methyl)-1,2,5-oxadiazole-3-carboxamide] | 35 | 
630 | COCCn1ncc(C(=O)N[C@H](c2cn3ncc([C@H](NC(=O)CCC(F)(F)F)C4CC4)cc3n2)C2CCC(F)(F)CC2)n1 [Example 64, N—((S)-(7-((R)-Cyclopropyl(4,4,4-trifluorobutanamido)methyl)imidazo[1,2-b]pyridazin-2-yl)(4,4-difluorocyclohexyl)methyl)-2-(2-methoxyethyl)-2H-1,2,3-triazole-4-carboxamide] | 2000 | 
22 | O=C(CC12CC(F)(C1)C2)N[C@@H](c1cnn2cc([C@@H](NC(=O)c3nonc3C3CC3)C3CCC(F)(F)CC3)nc2c1)C1CC1 [Example 296, 4-Cyclopropyl-N—((S)-(7-((R)-cyclopropyl(2-(3-fluorobicyclo[1.1.1]pentan-1-yl)acetamido)methyl)imidazo[1,2-b]pyridazin-2-yl)(4,4-difluorocyclohexyl)methyl)-1,2,5-oxadiazole-3-carboxamide] | 50 | 
220 | CC(C)Oc1nocc1C(=O)N[C@H](c1cn2ncc([C@H](NC(=O)CC3CC(F)(F)C3)C3CC3)cc2n1)C1CCC(F)(F)CC1 [Example 292, N—((S)-(7-((R)-Cyclopropyl(2-(3,3-difluorocyclobutyl)acetamido)methyl)imidazo[1,2-b]pyridazin-2-yl)(4,4-difluorocyclohexyl)methyl)-3-isopropoxyisoxazole-4-carboxamide] | 870 | 
57 | CCOCC(NC(=O)CC1CC(F)(F)C1)c1cnn2cc([C@@H](NC(=O)c3nonc3C3CC3)C3CCC(F)(F)CC3)nc2c1 (single isomer, unassigned) [Example 527, 4-Cyclopropyl-N—((S)-(7-((R*)-1-(2-(3,3-difluorocyclobutyl)acetamido)-2-ethoxyethyl)imidazo[1,2-b]pyridazin-2-yl)(4,4-difluorocyclohexyl)methyl)-1,2,5-oxadiazole-3-carboxamide] |  | 110
1300 | N#CC1(C(NC(=O)CC2(C(F)(F)F)CC2)c2cnn3cc([C@@H](NC(=O)c4nonc4C4CC4)C4CCC(F)(F)CC4)nc3c2)CC1 (single isomer, unassigned) [Example 433, N—((S)-(7-((R*)-(1-Cyanocyclopropyl)(2-(1-(trifluoromethyl)cyclopropyl)acetamido)methyl)imidazo[1,2-b]pyridazin-2-yl)(4,4-difluorocyclohexyl)methyl)-4-cyclopropyl-1,2,5-oxadiazole-3-carboxamide] | > 20000 | 
450 | N#Cc1ccc(C(=O)N[C@H](c2cn3ncc([C@H](NC(=O)CCC(F)(F)F)C4CC4)cc3n2)C2CCC(F)(F)CC2)cc1 [Example 213, 4-Cyano-N—((S)-(7-((R)-cyclopropyl(4,4,4-trifluorobutanamido)methyl)imidazo[1,2-b]pyridazin-2-yl)(4,4-difluorocyclohexyl)methyl)benzamide] | 20000 | 
59 | COCC(NC(=O)CC1CC(F)(F)C1)c1cnn2cc([C@@H](NC(=O)c3nonc3C3CC3)C3CCC(F)(F)CC3)nc2c1 (single isomer, unassigned) [Example 525, 4-Cyclopropyl-N—((S)-(7-((R*)-1-(2-(3,3-difluorocyclobutyl)acetamido)-2-methoxyethyl)imidazo[1,2-b]pyridazin-2-yl)(4,4-difluorocyclohexyl)methyl)-1,2,5-oxadiazole-3-carboxamide] |  | 42
33 | CC(C)c1snnc1C(=O)N[C@H](c1cn2ncc([C@H](NC(=O)CCC(F)(F)F)C3CC3)cc2n1)C1CCC(F)(F)CC1 [Example 87, N—((S)-(7-((R)-Cyclopropyl(4,4,4-trifluorobutanamido)methyl)imidazo[1,2-b]pyridazin-2-yl)(4,4-difluorocyclohexyl)methyl)-5-isopropyl-1,2,3-thiadiazole-4-carboxamide] | 95 | 
240 | O=C(CCC(F)(F)F)N[C@@H](c1cnn2cc([C@@H](NC(=O)[C@H]3CC34CCC4)C3CCC(F)(F)CC3)nc2c1)C1CC1 (relative stereo) [Example 367, (S*)—N—((S)-(7-((R*)-Cyclopropyl(4,4,4-trifluorobutanamido)methyl)imidazo[1,2-b]pyridazin-2-yl)(4,4-difluorocyclohexyl)methyl)spiro[2.3]hexane-1-carboxamide] | 630 | 
47 | N#CC1(C(NC(=O)CC2CC(F)(F)C2)c2cnn3cc([C@@H](NC(=O)c4nonc4C4CC4)C4CCC(F)(F)CC4)nc3c2)CC1 (single isomer, unassigned) [Example 424, N—((S)-(7-((S*)-(1-Cyanocyclopropyl)(2-(3,3-difluorocyclobutyl)acetamido)methyl)imidazo[1,2-b]pyridazin-2-yl)(4,4-difluorocyclohexyl)methyl)-4-cyclopropyl-1,2,5-oxadiazole-3-carboxamide] |  | 40
130 | O=C(CCC(F)(F)F)N[C@@H](c1cnn2cc([C@@H](NC(=O)c3cccc(OCC4CC4)c3)C3CCC(F)(F)CC3)nc2c1)C1CC1 [Example 180, N—((S)-(7-((R)-Cyclopropyl(4,4,4-trifluorobutanamido)methyl)imidazo[1,2-b]pyridazin-2-yl)(4,4-difluorocyclohexyl)methyl)-3-(cyclopropylmethoxy)benzamide] | 450 | 
